From ChEMBL document CHEMBL4428125, “8-Substituted 1,3-dimethyltetrahydropyrazino[2,1-f]purinediones: Water-soluble adenosine receptor antagonists and monoamine oxidase B inhibitors” (Bioorg Med Chem, 2016)

Assays:
Adenosine receptor A1 = biological target: T1, Adenosine receptor A1 (Rattus norvegicus, UniProt P25099); assay: Displacement of [3H]CCPA from A1 receptor in rat brain cortex membranes by liquid scintillation counting method; assay type: cell membranes
T1 sequence (P25099 whole entry): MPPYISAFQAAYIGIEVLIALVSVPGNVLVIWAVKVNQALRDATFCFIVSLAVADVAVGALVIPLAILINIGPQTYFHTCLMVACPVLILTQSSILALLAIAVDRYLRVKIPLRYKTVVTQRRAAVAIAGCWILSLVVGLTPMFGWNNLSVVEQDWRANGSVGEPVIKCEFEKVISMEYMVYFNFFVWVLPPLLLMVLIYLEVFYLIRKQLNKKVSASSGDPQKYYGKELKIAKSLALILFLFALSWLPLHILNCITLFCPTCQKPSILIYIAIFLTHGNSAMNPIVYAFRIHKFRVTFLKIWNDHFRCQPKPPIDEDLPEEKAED

[1] = biological target: T2, Adenosine receptor A1 (Rattus norvegicus) (UniProt P25099); assay: Displacement of [3H]CCPA from A1 receptor in rat brain cortex membranes at 1.5 uM by liquid scintillation counting method; assay type: cell membranes
T2 sequence (whole entry): T1 sequence (P25099 whole entry)

Adenosine receptor A2a = Adenosine receptor A2a (Rattus norvegicus, UniProt P30543); assay: Displacement of [3H]MSX from A2A receptor in rat brain striatum membranes measured after 30 mins by liquid scintillation counting method; assay type: cell membranes
Sequence of Adenosine receptor A2a (P30543 whole entry): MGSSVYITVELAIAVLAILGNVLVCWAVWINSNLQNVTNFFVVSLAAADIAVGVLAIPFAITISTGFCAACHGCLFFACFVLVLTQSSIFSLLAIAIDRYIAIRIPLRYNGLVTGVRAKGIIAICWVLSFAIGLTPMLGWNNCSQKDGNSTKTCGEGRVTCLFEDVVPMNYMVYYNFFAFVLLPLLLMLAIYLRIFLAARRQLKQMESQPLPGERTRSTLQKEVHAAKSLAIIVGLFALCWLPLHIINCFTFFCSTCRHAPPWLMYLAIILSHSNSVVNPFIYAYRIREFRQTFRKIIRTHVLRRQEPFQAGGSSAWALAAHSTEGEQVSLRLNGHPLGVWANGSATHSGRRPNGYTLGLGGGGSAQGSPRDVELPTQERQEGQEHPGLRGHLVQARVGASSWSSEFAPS

[2] = biological target: T3, Amine oxidase [flavin-containing] B (Homo sapiens, UniProt P27338); assay: Inhibition of recombinant human MAO-B expressed in baculovirus infected BTI insect cells preincubated for 30 mins followed by addition of p-tyramine as substrate measured over 45 mins by Amplex Red MAO assay
T3 sequence (P27338 whole entry): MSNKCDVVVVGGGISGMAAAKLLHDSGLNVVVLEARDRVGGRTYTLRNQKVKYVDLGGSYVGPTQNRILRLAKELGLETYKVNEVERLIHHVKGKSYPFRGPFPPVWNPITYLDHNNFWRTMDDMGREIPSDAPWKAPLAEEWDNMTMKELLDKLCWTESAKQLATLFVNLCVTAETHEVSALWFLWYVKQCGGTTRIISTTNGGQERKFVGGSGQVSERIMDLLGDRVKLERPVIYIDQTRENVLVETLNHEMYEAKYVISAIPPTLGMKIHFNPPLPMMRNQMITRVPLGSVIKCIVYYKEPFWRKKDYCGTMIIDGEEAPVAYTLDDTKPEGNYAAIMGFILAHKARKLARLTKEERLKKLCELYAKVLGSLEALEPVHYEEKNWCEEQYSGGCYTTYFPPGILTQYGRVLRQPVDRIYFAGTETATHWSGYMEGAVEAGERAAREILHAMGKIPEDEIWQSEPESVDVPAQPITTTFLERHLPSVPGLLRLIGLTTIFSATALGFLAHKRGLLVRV

Adenosine receptor A2b = biological target: T4, Adenosine receptor A2b (Homo sapiens, UniProt P29275); assay: Displacement of [3H]PSB-603 from human A2B receptor expressed in CHO cell membrane; assay type: cell membranes
T4 sequence (P29275 whole entry): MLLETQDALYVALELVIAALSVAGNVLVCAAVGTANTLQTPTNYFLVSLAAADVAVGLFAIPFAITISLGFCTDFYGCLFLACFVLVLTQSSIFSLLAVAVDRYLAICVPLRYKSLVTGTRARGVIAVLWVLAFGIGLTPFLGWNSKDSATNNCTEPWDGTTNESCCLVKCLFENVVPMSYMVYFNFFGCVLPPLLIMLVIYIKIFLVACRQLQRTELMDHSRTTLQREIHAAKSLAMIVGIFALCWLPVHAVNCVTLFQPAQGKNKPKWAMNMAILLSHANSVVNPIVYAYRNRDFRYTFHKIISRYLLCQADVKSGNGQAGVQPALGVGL

[3] = biological target: T5, Adenosine receptor A2b (Homo sapiens) (UniProt P29275); assay: Displacement of [3H]PSB-603 from human A2B receptor expressed in CHO cell membrane at 1 uM relative to control; assay type: cell membranes
T5 sequence (whole entry): T4 sequence (P29275 whole entry)

Adenosine receptor A3 = biological target: T6, Adenosine receptor A3 (Homo sapiens, UniProt P0DMS8); assay: Displacement of [3H]PSB-11 from human A3 receptor expressed in CHO cell membrane by liquid scintillation counting method relative to control; assay type: cell membranes
T6 sequence (P0DMS8 whole entry): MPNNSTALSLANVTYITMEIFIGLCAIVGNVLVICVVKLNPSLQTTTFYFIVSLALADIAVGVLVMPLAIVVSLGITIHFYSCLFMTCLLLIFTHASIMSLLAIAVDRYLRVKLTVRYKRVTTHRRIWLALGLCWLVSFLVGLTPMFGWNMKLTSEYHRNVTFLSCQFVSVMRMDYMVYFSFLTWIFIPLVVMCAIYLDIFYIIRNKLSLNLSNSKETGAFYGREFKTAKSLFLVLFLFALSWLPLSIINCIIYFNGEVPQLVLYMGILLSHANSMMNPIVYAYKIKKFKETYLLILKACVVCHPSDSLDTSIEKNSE

[4] = biological target: T7, Adenosine receptor A3 (Homo sapiens) (UniProt P0DMS8); assay: Displacement of [3H]PSB-11 from human A3 receptor expressed in CHO cell membrane at 10 uM by liquid scintillation counting method relative to control relative to control; assay type: cell membranes
T7 sequence (whole entry): T6 sequence (P0DMS8 whole entry)

[5] = biological target: T8, Amine oxidase [flavin-containing] A (Homo sapiens, UniProt P21397); assay: Inhibition of recombinant human MAO-A expressed in baculovirus infected BTI insect cells preincubated for 30 mins followed by addition of p-tyramine as substrate measured over 45 mins by Amplex Red MAO assay
T8 sequence (P21397 whole entry): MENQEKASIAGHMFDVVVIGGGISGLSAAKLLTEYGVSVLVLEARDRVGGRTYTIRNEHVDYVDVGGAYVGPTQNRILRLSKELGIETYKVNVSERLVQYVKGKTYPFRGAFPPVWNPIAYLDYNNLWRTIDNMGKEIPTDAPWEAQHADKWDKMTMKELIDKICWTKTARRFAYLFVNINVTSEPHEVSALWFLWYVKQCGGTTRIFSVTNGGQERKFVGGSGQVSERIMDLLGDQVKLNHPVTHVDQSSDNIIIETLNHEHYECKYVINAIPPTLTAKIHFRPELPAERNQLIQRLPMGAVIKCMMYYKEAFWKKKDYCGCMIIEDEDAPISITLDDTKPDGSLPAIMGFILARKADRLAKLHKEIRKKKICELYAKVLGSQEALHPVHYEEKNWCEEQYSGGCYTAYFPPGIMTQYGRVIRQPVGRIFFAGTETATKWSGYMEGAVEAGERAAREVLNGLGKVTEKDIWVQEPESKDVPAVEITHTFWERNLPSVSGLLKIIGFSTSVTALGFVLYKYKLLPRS

[6] = biological target: T8, Amine oxidase [flavin-containing] A; assay: Inhibition of recombinant human MAO-A expressed in baculovirus infected BTI insect cells at 10 uM preincubated for 30 mins followed by addition of p-tyramine as substrate measured over 45 mins by Amplex Red MAO assay relative to control; settings: 0.75 h
[7] = biological target: T3, Amine oxidase [flavin-containing] B; assay: Inhibition of recombinant human MAO-B expressed in baculovirus infected BTI insect cells at 10 uM preincubated for 30 mins followed by addition of p-tyramine as substrate measured over 45 mins by Amplex Red MAO assay relative to control; settings: 0.75 h
[8] = biological target: Adenosine receptor A2a (Rattus norvegicus) (UniProt P30543); assay: Displacement of [3H]MSX from A2A receptor in rat brain striatum membranes at 1 uM measured after 30 mins by liquid scintillation counting method relative to control; assay type: cell membranes
Sequence of Adenosine receptor A2a (Rattus norvegicus) (P30543 whole entry): as the sequence (P30543 whole entry) above

| Structure (SMILES) | Ki (Adenosine receptor A1) | Activity [1] | Ki (Adenosine receptor A2a) | IC50 [2] | Ki (Adenosine receptor A2b) | Activity [3] | Ki (Adenosine receptor A3) | Activity [4] | IC50 [5] | inhibition at 10 µM [6] | inhibition at 10 µM [7] | Activity [8] |
| --- | --- | --- | --- | --- | --- | --- | --- | --- | --- | --- | --- | --- |
| Cn1c(=O)c2c(nc3n2CCN(CCc2ccccc2Cl)C3)n(C)c1=O | > 1500 nM | 32% | 2730 nM | 723 nM | > 1000 nM | 13% | > 10000 nM | 43% | > 10000 nM | 11% | – | – |
| Cn1c(=O)c2c(nc3n2CCN(c2cccc(F)c2)C3)n(C)c1=O | > 1500 nM | 20% | 2920 nM | 1500 nM | > 1000 nM | 3% | > 10000 nM | 18% | > 10000 nM | 8% | – | – |
| Cn1c(=O)c2c(nc3n2CCN(CCc2ccccc2)C3)n(C)c1=O | > 1500 nM | 9% | 9610 nM | > 10000 nM | > 1000 nM | 11% | > 10000 nM | 43% | > 10000 nM | -12% | 39% | – |
| Cn1c(=O)c2c(nc3n2CCN(CCc2ccc(Cl)c(Cl)c2)C3)n(C)c1=O | > 1500 nM | 35% | 2850 nM | 802 nM | > 1000 nM | 11% | 15000 nM | – | > 10000 nM | 14% | – | – |
| CC(CN1CCn2c(nc3c2c(=O)n(C)c(=O)n3C)C1)c1ccccc1 (stereo not drawn) | > 1500 nM | 27% | 4520 nM | > 10000 nM | > 1000 nM | 11% | > 10000 nM | 31% | > 10000 nM | 23% | 11% | – |
| Cn1c(=O)c2c(nc3n2CCN([C@@H]2CCc4ccccc42)C3)n(C)c1=O | > 1500 nM | 28% | 5080 nM | 2150 nM | > 1000 nM | 8% | > 10000 nM | 38% | – | – | – | – |
| Cn1c(=O)c2c(nc3n2CCN(c2cccc4ccccc24)C3)n(C)c1=O | > 1500 nM | 17% | 2940 nM | 828 nM | > 1000 nM | 10% | > 10000 nM | 29% | > 10000 nM | 16% | – | – |
| COc1cccc(N2CCn3c(nc4c3c(=O)n(C)c(=O)n4C)C2)c1 | > 1500 nM | 16% | 1010 nM | 1160 nM | > 1000 nM | 21% | > 10000 nM | 32% | > 10000 nM | 3% | – | – |
| Cn1c(=O)c2c(nc3n2CCN(CCc2c(Cl)cccc2Cl)C3)n(C)c1=O | > 1500 nM | 34% | 3050 nM | 932 nM | > 1000 nM | 22% | > 10000 nM | 10% | – | – | – | – |

More lines, now with the values ahead:

| Ki (Adenosine receptor A1) | Activity [1] | Ki (Adenosine receptor A2a) | IC50 [2] | Ki (Adenosine receptor A2b) | Activity [3] | Ki (Adenosine receptor A3) | Activity [4] | IC50 [5] | inhibition at 10 µM [6] | inhibition at 10 µM [7] | Activity [8] | Structure (SMILES) |
| --- | --- | --- | --- | --- | --- | --- | --- | --- | --- | --- | --- | --- |
| > 1500 nM | 4% | 2130 nM | 2230 nM | > 1000 nM | 9% | > 10000 nM | 24% | – | – | – | – | Cn1c(=O)c2c(nc3n2CCN(c2ccc(F)cc2)C3)n(C)c1=O |
| > 1500 nM | 14% | 1310 nM | – | > 1000 nM | 21% | > 10000 nM | 10% | > 10000 nM | 13% | 61% | – | Cn1c(=O)c2c(nc3n2CCN(CCc2cccc(Cl)c2)C3)n(C)c1=O |
| > 1500 nM | 10% | > 1000 nM | – | > 1000 nM | 12% | > 10000 nM | 11% | – | – | 60% | 19% | Cn1c(=O)c2c(nc3n2CCN(CCc2ccc(F)c(F)c2)C3)n(C)c1=O |
| > 1500 nM | 12% | 3830 nM | – | > 1000 nM | 8% | > 10000 nM | 32% | > 10000 nM | -1% | 61% | – | Cn1c(=O)c2c(nc3n2CCN(c2ccccc2)C3)n(C)c1=O |
| > 1500 nM | 6% | 2580 nM | 10000 nM | > 1000 nM | 12% | > 10000 nM | 29% | – | – | 63% | – | Cn1c(=O)c2c(nc3n2CCN(CCc2cccc(C(F)(F)F)c2)C3)n(C)c1=O |
| > 1500 nM | 9% | > 1000 nM | > 10000 nM | > 1000 nM | 7% | > 10000 nM | 39% | – | – | 4% | 15% | COc1ccccc1CCN1CCn2c(nc3c2c(=O)n(C)c(=O)n3C)C1 |
| 1250 nM | – | 2420 nM | > 10000 nM | > 1000 nM | 21% | > 10000 nM | 36% | > 10000 nM | 14% | 27% | – | Cn1c(=O)c2c(nc3n2CCN(CCOc2ccc(Cl)c(Cl)c2)C3)n(C)c1=O |
| > 1500 nM | 36% | > 1000 nM | > 10000 nM | > 1000 nM | 27% | > 10000 nM | 11% | – | – | 12% | 26% | Cn1c(=O)c2c(nc3n2CCN(Cc2cn(-c4ccc(Cl)cc4)nn2)C3)n(C)c1=O |
